Active and inactive are the calls of the source. The rule behind the calls is not given here.

The target in data set [1] is Coagulation factor IX (Homo sapiens) (UniProt P00740). The data set is described as follows: Inhibition of human factor 9a.
The target of data set [2] is T1, Coagulation factor VII (Homo sapiens) (UniProt P08709).
T1 sequence (whole entry): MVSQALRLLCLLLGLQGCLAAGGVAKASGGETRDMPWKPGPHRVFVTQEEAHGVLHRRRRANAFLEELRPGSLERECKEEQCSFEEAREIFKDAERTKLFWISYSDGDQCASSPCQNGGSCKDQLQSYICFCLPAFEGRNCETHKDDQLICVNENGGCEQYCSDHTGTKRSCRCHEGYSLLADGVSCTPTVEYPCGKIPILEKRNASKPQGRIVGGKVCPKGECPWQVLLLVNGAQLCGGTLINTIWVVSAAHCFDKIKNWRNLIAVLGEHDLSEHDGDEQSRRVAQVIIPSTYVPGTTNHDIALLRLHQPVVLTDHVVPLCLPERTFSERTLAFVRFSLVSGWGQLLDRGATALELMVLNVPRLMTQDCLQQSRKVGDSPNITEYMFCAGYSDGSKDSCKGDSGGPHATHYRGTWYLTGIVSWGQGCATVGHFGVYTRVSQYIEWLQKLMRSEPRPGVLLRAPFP
The data set can be described thus: Inhibition of human factor 7a.

Data set [3] has as its target Plasminogen (Homo sapiens) (UniProt P00747). The data set can be described thus: Inhibition of human plasmin.
Another data set is filed under the species Homo sapiens. The data set can be described thus: Inhibition of human chymotrypsin.
Data set [4] concerns the target Tissue-type plasminogen activator (Homo sapiens) (UniProt P00750). The data set is described as follows: Inhibition of human tPA.
For data set [5], the target named is Plasma kallikrein (Homo sapiens) (UniProt P03952). The data set is described as follows: Inhibition of human plasma kallikrein. It counts as cell-free.
Data set [6] has as its target Vitamin K-dependent protein C (Homo sapiens) (UniProt P04070). The data set can be described thus: Inhibition of human activated protein C.
Data set [7] can be described thus: Metabolic stability in human liver microsomes assessed as half life. The format is ADME, Microsome. In general terms: Liver microsomes are vesicles of endoplasmic reticulum, rich in cytochrome P450 enzymes.
A short description of data set [8]: Clearance in dog at 0.5 mg/kg, iv. It counts as ADME, organism-based, Canis lupus familiaris. Further details: dose 0.5 mg/kg, route intravenous. As to conditions: in vivo.
Data set [9] in a line: (§1) Volume of distribution at steady state in dog. The format is ADME, organism-based, Canis lupus familiaris. The following applies: in vivo, read-out: Vdss.
A short description of data set [10]: Half life in dog at 0.2 mg/kg, po. It counts as ADME, organism-based, Canis lupus familiaris. More on the design: dose 0.2 mg/kg, route oral. As to conditions: in vivo.
A short description of data set [11]: Bioavailability in dog at 0.5 mg/kg, iv. The format is ADME, organism-based, Canis lupus familiaris. As to conditions: in vivo.
The species named for another data set is Canis familiaris. The data set is described as §1. The following applies: in vivo. The format is ADME, organism-based, Canis lupus familiaris.
For a further data set, the target named is Coagulation factor X (Homo sapiens, UniProt P00742). The data set is described as follows: Inhibition of human factor 10a.
The target of the next data set is Trypsin (Homo sapiens) (UniProt P07477+P07478+P35030). The data set can be described thus: Inhibition of human trypsin. The format is protein assay.

Chain of Plasma kallikrein (Homo sapiens) (P03952 20-390 limits assumed): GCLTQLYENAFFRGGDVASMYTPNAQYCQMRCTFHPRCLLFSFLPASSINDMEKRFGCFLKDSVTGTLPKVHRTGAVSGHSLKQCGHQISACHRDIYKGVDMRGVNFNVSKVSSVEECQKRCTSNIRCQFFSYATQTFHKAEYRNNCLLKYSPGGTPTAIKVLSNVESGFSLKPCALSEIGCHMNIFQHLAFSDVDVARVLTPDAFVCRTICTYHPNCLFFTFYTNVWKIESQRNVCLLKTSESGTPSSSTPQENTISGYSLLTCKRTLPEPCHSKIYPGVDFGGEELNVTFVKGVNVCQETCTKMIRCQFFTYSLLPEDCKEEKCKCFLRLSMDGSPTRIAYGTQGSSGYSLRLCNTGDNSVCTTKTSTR
Chain of Plasma kallikrein (Homo sapiens) (P03952 391-638 limits assumed): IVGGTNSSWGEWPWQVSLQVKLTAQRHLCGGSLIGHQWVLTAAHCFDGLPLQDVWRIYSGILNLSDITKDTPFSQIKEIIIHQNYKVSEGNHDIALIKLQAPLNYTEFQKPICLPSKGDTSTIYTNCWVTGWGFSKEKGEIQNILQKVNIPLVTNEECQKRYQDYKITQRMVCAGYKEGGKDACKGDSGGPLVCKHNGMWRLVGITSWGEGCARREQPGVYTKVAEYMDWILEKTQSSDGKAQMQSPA
Chain of Coagulation factor X (P00742 41-179 limits assumed): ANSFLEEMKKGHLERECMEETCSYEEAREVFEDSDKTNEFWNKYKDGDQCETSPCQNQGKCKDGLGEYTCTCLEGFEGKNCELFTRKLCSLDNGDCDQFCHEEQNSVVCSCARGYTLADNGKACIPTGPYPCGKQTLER
Chain of Coagulation factor X (P00742 235-488 limits assumed): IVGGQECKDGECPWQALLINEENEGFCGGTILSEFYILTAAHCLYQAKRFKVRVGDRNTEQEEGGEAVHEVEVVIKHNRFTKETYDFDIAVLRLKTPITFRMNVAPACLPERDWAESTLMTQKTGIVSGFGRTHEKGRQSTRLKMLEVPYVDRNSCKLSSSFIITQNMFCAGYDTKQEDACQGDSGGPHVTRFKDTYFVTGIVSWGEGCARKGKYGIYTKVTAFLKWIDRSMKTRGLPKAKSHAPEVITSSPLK
Chain of Plasminogen (Homo sapiens) (P00747 97-580 limits assumed): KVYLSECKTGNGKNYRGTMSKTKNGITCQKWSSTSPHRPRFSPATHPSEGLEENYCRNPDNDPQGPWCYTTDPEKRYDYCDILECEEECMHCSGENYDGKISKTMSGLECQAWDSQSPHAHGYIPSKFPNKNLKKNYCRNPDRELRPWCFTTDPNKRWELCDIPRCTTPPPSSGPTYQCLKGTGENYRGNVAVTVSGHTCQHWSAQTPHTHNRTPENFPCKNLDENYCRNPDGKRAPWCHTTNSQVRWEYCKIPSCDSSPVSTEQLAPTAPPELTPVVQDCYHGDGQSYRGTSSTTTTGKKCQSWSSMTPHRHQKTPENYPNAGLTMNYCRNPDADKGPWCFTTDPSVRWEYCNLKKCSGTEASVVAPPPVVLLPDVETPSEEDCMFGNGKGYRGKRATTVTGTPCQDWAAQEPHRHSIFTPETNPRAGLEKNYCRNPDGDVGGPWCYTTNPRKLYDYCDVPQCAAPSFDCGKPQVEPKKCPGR
Chain of Plasminogen (Homo sapiens) (P00747 581-810 limits assumed): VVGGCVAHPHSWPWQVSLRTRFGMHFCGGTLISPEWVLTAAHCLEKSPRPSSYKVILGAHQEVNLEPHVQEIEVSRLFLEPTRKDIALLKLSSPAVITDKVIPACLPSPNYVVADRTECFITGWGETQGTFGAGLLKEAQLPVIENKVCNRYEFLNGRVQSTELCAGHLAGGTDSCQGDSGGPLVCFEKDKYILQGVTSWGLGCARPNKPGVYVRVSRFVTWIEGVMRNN
Chain of Coagulation factor IX (Homo sapiens) (P00740 47-191 limits assumed): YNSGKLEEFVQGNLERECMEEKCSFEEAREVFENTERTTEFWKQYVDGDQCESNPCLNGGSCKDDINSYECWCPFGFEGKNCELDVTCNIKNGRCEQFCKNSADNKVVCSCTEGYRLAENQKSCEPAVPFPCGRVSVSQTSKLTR
Chain of Coagulation factor IX (Homo sapiens) (P00740 227-461 limits assumed): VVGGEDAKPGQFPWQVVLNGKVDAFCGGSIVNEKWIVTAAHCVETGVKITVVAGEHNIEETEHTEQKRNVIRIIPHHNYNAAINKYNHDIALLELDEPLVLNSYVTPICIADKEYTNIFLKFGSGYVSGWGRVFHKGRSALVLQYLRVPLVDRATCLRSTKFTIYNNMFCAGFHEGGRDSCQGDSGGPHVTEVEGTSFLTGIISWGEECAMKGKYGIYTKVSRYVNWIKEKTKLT
Chain of Tissue-type plasminogen activator (Homo sapiens) (P00750 36-562 limits assumed): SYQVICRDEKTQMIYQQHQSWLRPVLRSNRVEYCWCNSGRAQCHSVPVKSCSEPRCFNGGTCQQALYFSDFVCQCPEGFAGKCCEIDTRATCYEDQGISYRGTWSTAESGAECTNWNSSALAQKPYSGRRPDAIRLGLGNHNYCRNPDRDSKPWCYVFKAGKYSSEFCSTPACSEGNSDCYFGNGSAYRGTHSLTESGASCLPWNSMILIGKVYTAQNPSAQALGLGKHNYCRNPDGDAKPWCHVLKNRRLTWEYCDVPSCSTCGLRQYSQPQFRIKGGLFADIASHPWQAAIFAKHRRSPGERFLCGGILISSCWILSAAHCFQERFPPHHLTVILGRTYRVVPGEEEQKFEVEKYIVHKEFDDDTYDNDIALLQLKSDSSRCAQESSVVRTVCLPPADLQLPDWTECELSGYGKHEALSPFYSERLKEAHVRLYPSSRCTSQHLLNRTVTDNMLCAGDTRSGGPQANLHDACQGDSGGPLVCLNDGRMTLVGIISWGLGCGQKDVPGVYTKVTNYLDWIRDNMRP
Chain of Vitamin K-dependent protein C (Homo sapiens) (P04070 43-197 limits assumed): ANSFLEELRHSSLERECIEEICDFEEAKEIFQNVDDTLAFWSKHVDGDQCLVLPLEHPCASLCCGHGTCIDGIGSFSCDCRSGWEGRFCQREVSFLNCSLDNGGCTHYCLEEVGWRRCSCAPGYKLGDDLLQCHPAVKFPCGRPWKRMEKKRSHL
Chain of Vitamin K-dependent protein C (Homo sapiens) (P04070 212-461 limits assumed): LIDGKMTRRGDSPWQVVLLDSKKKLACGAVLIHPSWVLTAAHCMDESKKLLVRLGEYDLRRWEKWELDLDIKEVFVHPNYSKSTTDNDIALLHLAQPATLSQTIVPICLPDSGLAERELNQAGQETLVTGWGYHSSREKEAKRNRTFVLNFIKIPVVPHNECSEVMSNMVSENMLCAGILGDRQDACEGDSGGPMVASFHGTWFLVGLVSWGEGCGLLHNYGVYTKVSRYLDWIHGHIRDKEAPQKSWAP

The term half-life denotes how long it takes for the measured level to halve. For orientation: clearance means the rate of elimination divided by the concentration. Read a high clearance as a high capacity for elimination. Broadly, the bioavailability is dose-corrected exposure relative to a reference, in per cent. Low readings indicate little systemic uptake, high ones much systemic uptake. Take `COc1ccc(-n2nc(C(F)(F)F)c3c2C(=O)N(c2ccc(C4(CN(C)C)CC4)cc2)CC3)cc1`: the outcome (in data set [1]; in data set [2]; in [3]; in the data set filed under Homo sapiens; in data set [4]; in data set [5]) was inactive. In data set [6], the outcome was inactive. The half-life in [7] is 1.83 h; in [10] it was 12 h. Moreover, the clearance in data set [8] is 20 mL/min/kg. Besides, the Vd in data set [9] was found to be 15 L/kg. In data set [11], the bioavailability amounted to 53%.
The term Vdss denotes a proportionality between amount in the body and measured concentration, not a real space. Consider `CN(C)Cc1nccn1-c1ccc(NC(=O)c2cc(C(F)(F)F)nn2-c2ccc3onc(N)c3c2)c(F)c1` [RAZAXABAN], for which the half-life in [7] stood at 0.6 h. In addition, the Vdss in the data set filed under Canis familiaris turned out to be 5.3 L/kg. Besides, the bioavailability in [11] was found to be 84%.
The term Ki denotes the equilibrium dissociation constant of an inhibitor or competing ligand from its target. Higher therefore signals a looser hold on the target. On to `CCN(CC)CC1(c2ccc(N3CCc4c(C(F)(F)F)nn(-c5ccc(OC)cc5)c4C3=O)cc2)CC1`, for which the Ki at Coagulation factor X is less than 0.02 nM. In addition, the outcome (at Trypsin (Homo sapiens); in data set [1]; in [2]; in data set [3]; in the data set listed under Homo sapiens; in data set [4]) was inactive. Moreover, the result in data set [5] and in data set [6] was inactive.
At Coagulation factor X, `CCNC(=O)N(C)CC1(c2ccc(N3CCc4c(C(F)(F)F)nn(-c5ccc(OC)cc5)c4C3=O)cc2)CC1` showed an inhibitory constant (Ki) of 0.14 nM. The outcome (on Trypsin (Homo sapiens); in data set [1]; in [2]; in [3]; in the data set listed under Homo sapiens; in data set [4]) was inactive. For the same compound, the outcome in [5] and in [6] was inactive.
As for `COc1ccc(-n2nc(C(F)(F)F)c3c2C(=O)N(c2ccc(C4(CN)CC4)cc2)CC3)cc1`, affinity on Coagulation factor X was put at a Ki of 0.57 nM. Moreover, the result (at Trypsin (Homo sapiens); in data set [1]; in data set [2]; in data set [3]; in the data set listed under Homo sapiens; in data set [4]) was inactive. Also, the outcome in data set [5] and in data set [6] was inactive.
Consider `COCC1(c2ccc(N3CCc4c(C(F)(F)F)nn(-c5ccc(OC)cc5)c4C3=O)cc2)CC1`, for which, at Coagulation factor X, the Ki was found to be 1.6 nM. For the same compound, the outcome (on Trypsin (Homo sapiens); in [1]; in data set [2]; in data set [3]; in the data set listed under Homo sapiens; in data set [4]) was inactive. Also, the result in [5] and in data set [6] was inactive.
On Coagulation factor X, `COc1ccc(-n2nc(C(F)(F)F)c3c2C(=O)N(c2ccc(C4(CNc5nccs5)CC4)cc2)CC3)cc1` registered a Ki of 0.054 nM. The result (at Trypsin (Homo sapiens); in data set [1]; in data set [2]; in data set [3]; in the data set listed under Homo sapiens; in [4]) was inactive. Further, the outcome in data set [5] and in [6] was inactive.
Compound `COc1ccc(-n2nc(C(F)(F)F)c3c2C(=O)N(c2ccc(C4(C(N)=O)CC4)cc2)CC3)cc1` showed a Ki on Coagulation factor X of 3.3 nM. The result (on Trypsin (Homo sapiens); in data set [1]; in [2]; in data set [3]; in the data set filed under Homo sapiens; in data set [4]) was inactive. The outcome in data set [5] and in [6] was inactive.
For the compound `COc1ccc(-n2nc(C(F)(F)F)c3c2C(=O)N(c2ccc(C4(CNC(C)C)CC4)cc2)CC3)cc1`, the affinity on Coagulation factor X, expressed as Ki, was 0.042 nM. The result (on Trypsin (Homo sapiens); in data set [1]; in data set [2]; in [3]; in the data set filed under Homo sapiens; in data set [4]) was inactive. Moreover, the outcome in data set [5] and in data set [6] was inactive.

These data come from ChEMBL document CHEMBL1157522 (Bioorg Med Chem Lett, 2008).
